Measurements as given in article PMC6712002, “Comprehensive in vitro characterization of PD-L1 small molecule inhibitors” (Scientific Reports, 2019).
“Also recorded” adds a separate entry of the source. Bridge positions count the residues as written; N and C are the ends. Square brackets hold non-standard residues; d marks the D form. Peptide text beside a SMILES is read from it. NMeNle = CCCC[C@H](NC)C(=O)O; NMeA = CN[C@@H](C)C(=O)O

Columns and labels:
[1] = target: T1, PD-L1 (Homo sapiens, UniProt Q9NZQ7); test: Differential scanning fluorimetry (DSF) of PD-L1; assay type: binding; details: PD-L1 10 µM, compound 50 µM
T1 construct: human PD-L1 (residues 18–134) was cloned into pET21b vector; made in house

[2] = target: human PD-1 protein (Homo sapiens, UniProt Q15116); test: DSF of PD-1; assay type: binding
[3] = target: T1, PD-L1; test: Microscale thermophoresis (MST) binding to labeled PD-L1; details: labeled PD-L1 60 nM
[4] = target: Fc-PD-L1 (Homo sapiens, UniProt Q9NZQ7); test: SPR binding to captured Fc-PD-L1; details: Fc-PD-L1 captured on Protein A chip, 25 °C
[5] = target: T1, PD-L1; test: 1D NMR STD and WaterLOGSY binding; details: 12 µM PD-L1, 200 µM compound
Procedure: In addition, we also employed 1D NMR-based methods, saturation transfer difference (STD) and WaterLOGSY techniques, to unambiguously rule-out the binding of Aurigene-1 to PD-L1 protein. STD and WaterLOGSY are popular ligand-based approaches to detect the binding of protein-protein inhibitors.
NMR samples contained 12 µM of protein, 200 µM of compound in 1x PBS (phosphate-buffered saline buffer, pH 7.5) and 0.25 mM 2,2-dimethyl-2-silapentane-5-sulfonate-d6 sodium salt (DSS-d6) as an NMR internal reference in 95/5% H2O/D2O or 100% D2O. […] NMR spectroscopy was performed at the Nanuc NMR Centre on a 2.2 K pumped-800 MHz Oxford magnet updated to a Bruker Neo-Advance IV console equipped with a 5 mm cryoprobe and SampleJet robotics.
Fig. S3: STD and WaterLOGSY experiments of PD-L1 binding to Aurigene-1. Blue - 1D spectrum of Aurigene-1, Red and Green -STD and WaterLOGSY spectra respectively of 12 μM of PD-L1 with 200 μM of Aurigene-1

[6] = target: T2, PD-1/PD-L1 binding (Homo sapiens, UniProt Q9NZQ7); test: PD-1/PD-L1 ELISA competition assay, reverse configuration (PD-1 coated, biotinylated PD-L1); assay type: biochemical; details: biotin tagged PD-L1
Target sequence in this assay (Q9NZQ7 19-238 limits assumed): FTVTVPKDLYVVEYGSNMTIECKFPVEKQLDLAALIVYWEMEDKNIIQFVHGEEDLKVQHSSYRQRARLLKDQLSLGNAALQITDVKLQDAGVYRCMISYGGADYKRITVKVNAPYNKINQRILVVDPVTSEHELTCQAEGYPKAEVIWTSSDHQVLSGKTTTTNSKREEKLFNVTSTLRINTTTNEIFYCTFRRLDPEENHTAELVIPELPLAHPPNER

[7] = tested on: peripheral blood mononuclear cells (PBMCs); assay type: cell-based, human
[8] = tested on: PD-1/NFAT reporter Jurkat cells co-cultured with TCR activator/PD-L1-CHO cells; test: Bioluminescent PD-1/PD-L1 cell-based assay (NFAT luciferase reporter)
[9] = tested on: Jurkat cells; test: Jurkat cell viability, CellTiter-Glo; assay type: cell-based; details: 24 h; for effect on cell viability: concentrations tested; for concentration significantly decreasing cell viability: vs DMSO control
[10] = tested on: HepG2 cells; test: HepG2 cell viability, CCK-8 assay; assay type: cell-based, human; details: HepG2, 24 h; for effect on cell viability: various concentrations tested; for concentration significantly reducing cell viability / concentration without significant effect on cell viability: CCK-8
Procedure: We also evaluated the acute cytotoxicity of the BMS and Aurigene compounds by testing the effects of compound treatment on the viability of HepG2 cell line. […] The purpose of using HepG2 cells, thus, would allow for evaluation of the parent molecules and potential metabolites for cytotoxicity. The cells were treated with the compounds for 24 h and then the cell viability was assessed by the CCK-8 assay (Fig. 7C).
The acute cytotoxicity of the test compounds was also evaluated by administering the test compounds to human hepatoma (HepG2) cells and assessing their viability (metabolic viability) using the CCK-8 assay (based on WST-8). HepG2 cells are commonly used in the early screening stages for new chemical entities, and the CCK-8 assay has been well established as a sensitive and reliable indicator for cellular metabolic activity (viability) for this purpose. HepG2 cells were obtained from ATCC (HB-8065; Manassas, VA) and maintained in DMEM culture medium in a water-jacketed incubator (5% CO2, 37 °C). […] At this time point, cells were treated with WST-8 based on the manufacturer’s protocol (CCK-8 kit, Dojindo Molecular Technologies, Rockville, MD). Cell viability calculations were also carried out according to the manufacturer’s protocol, which included accounting for potential interference from test compounds, and comparisons to appropriate controls. GraphPad Prism was used for data analysis and graphical representation.

[11] = tested on: mouse splenocytes; parameters: method as in earlier work; details: CFSE proliferation assay with recombinant PD-L1; cited from earlier work
[12] = target: T2, PD-1/PD-L1 binding; test: PD-1/PD-L1 ELISA competition assay (PD-L1 coated, biotinylated PD-1); assay type: biochemical; parameters: purchased R&D Systems (Fc-PD-L1); Acro Biosystems (biotinylated PD-1)
Target sequence in this assay (Q9NZQ7 19-239 limits assumed): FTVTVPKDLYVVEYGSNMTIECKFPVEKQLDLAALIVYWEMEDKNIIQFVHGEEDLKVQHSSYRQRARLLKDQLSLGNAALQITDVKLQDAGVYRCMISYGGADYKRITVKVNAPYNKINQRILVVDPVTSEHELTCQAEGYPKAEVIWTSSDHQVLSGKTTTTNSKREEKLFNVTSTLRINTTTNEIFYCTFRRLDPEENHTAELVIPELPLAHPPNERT

[13] = target: T3, Fc-B7-1 (Homo sapiens, UniProt P33681); test: SPR binding to captured Fc-B7-1 (specificity)
T3 sequence (P33681 35-242 limits assumed): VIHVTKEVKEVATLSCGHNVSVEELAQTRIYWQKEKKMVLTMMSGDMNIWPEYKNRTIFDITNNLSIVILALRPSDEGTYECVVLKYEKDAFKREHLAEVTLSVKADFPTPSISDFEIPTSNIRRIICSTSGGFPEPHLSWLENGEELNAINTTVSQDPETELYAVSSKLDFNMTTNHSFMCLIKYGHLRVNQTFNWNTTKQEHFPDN

[14] = tested on: PD-1 negative Jurkat T cells; test: Counter-screen NFAT luciferase reporter in PD-1 negative Jurkat T cells; assay type: cell-based; details: 24.5 μM and 49 μM
[15] = tested on: CHO cells; test: CHO cell viability, CellTiter-Glo; details: 24 h; for concentration significantly reducing cell viability: vs DMSO control
[16] = tested on: PD-1/PD-L1; details: read-out: IC50 (HTRF); original disclosure; cited from earlier work
[17] = tested on: peripheral blood mononuclear cells (PBMCs); test: IFN-γ production by SEB-stimulated PBMCs (ELISA); assay type: cell-based, human
[18] = target: PD-1/PD-L1 interface (Homo sapiens, UniProt Q9NZQ7); test: Binding to the PD-1/PD-L1 interface (method not given)
Sequence of PD-1/PD-L1 interface (Q9NZQ7 19-290): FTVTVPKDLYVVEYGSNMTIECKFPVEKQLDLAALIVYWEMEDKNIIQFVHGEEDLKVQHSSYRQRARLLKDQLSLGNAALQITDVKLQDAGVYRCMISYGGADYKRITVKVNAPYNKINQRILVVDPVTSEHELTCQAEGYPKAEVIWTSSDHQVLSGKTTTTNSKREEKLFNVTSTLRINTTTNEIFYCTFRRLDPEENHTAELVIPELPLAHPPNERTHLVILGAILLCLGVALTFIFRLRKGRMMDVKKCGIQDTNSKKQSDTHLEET

T1 sequence (Q9NZQ7 18-134): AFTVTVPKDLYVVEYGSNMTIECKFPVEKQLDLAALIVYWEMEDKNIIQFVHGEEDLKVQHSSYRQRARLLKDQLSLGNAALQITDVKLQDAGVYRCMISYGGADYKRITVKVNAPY
Sequence of human PD-1 protein (Q15116 25-288): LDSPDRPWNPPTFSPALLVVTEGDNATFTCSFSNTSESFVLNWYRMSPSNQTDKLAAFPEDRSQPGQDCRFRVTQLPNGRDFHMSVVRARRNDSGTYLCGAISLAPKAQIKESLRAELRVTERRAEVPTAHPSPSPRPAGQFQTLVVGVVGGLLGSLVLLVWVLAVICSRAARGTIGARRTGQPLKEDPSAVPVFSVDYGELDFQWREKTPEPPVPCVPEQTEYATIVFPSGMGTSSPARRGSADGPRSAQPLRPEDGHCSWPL
Sequence of Fc-PD-L1 (Q9NZQ7 19-238 limits assumed): as the sequence (Q9NZQ7 19-238 limits assumed) above

## CC(O)[C@H](NC(=O)N[C@@H](CC(N)=O)c1nc([C@@H](N)CO)no1)C(=O)O (some centres unmarked) [Aurigene-1]
[1]
  shift of Tm of PD-L1: 0.7 ± 0.1 °C
[2]
  thermal stability of PD-1 protein: did not increase the thermal stability of PD-1 protein; also recorded: did not induce thermal stability to the human PD-1 protein
[3]
  binding to PD-L1 (MST fluorescence response): no change in fluorescence
[4]
  Rmax (maximum binding response): 0.78 ± 0.36 RU
[5]
  binding to PD-L1 (STD, WaterLOGSY NMR): does not bind to PD-L1 protein
[6]
  inhibition of PD-1/PD-L1 binding, reverse configuration: did not show inhibition of PD-1/PD-L1 binding
[7]
  effect on IL-2 production: cannot enhance IL-2 production
[8]; 55.5 μM, 27.8 μM, 13.9 μM, 2.8 μM and 1.4 μM
  NFAT activity: none of these concentrations facilitated NFAT activity
[9]
  effect on cell viability: did not show any effect on the cell viability
[10]
  effect on cell viability: did not show any effects on the cell viability
[11]
  rescue of mouse splenocyte proliferation: 97%
[12]; 7.8 µM to 500 µM
  inhibition of PD-1/PD-L1 binding: did not inhibit the PD-1/PD-L1 binding

## COc1cc(OCc2cccc(-c3ccccc3)c2C)cc(OC)c1CNCCO [BMS-103]
[13]
  binding with captured Fc-B7-1: None of the BMS inhibitors (BMSpep-57, BMS-103 and BMS-142) showed binding
[7]
  IL-2 production vs positive control: significantly lower levels of IL-2 than the positive control
[14]
  luminescence of PD-1 negative Jurkat cells: substantially low
[9]
  concentration completely abolishing cell viability: ≥ 2.4 µM
  concentration significantly decreasing cell viability: 0.4 µM
[10]
  concentration significantly reducing cell viability: ≥ 12.2 µM
  concentration without significant effect on cell viability: up to 2.4 µM
[15]
  concentration significantly reducing cell viability: ≥ 12.2 µM

## COc1cc(OCc2cccc(-c3ccccc3)c2C#N)cc(OC)c1CNCCO [BMS-142]
[13]
  binding with captured Fc-B7-1: None of the BMS inhibitors (BMSpep-57, BMS-103 and BMS-142) showed binding
[8]; 12.3 μM, 2.4 μM and […]
  NFAT activity vs cells only: no change in NFAT activity
[8]; 24 µM and 48 µM
  NFAT activity (interaction with PD-1/PD-L1): sometimes interacted weakly with PD-1/PD-L1, although this was not statistically significant
[9]
  concentration without any effect on cell viability: up to 2.4 µM
  concentration significantly decreasing cell viability: ≥ 12 µM
[10]
  concentration significantly reducing cell viability: ≥ 48 µM
[16]
  IC50: 6 to 100 nM
[15]
  concentration without any effect on cell viability: up to 2.4 µM
  concentration significantly reducing cell viability: ≥ 12 µM

## CCCC[C@H]1C(=O)N(C)[C@@H](CCCC)C(=O)N[C@@H](CCCNC(=N)N)C(=O)N[C@H](C(=O)NCC(N)=O)CSCC(=O)N[C@@H](Cc2ccccc2)C(=O)N(C)[C@@H](C)C(=O)N[C@@H](CC(N)=O)C(=O)N2CCC[C@H]2C(=O)N[C@@H](Cc2cnc[nH]2)C(=O)N[C@@H](CC(C)C)C(=O)N[C@@H](CO)C(=O)N[C@@H](Cc2c[nH]c3ccccc23)C(=O)N[C@@H](CO)C(=O)N[C@@H](Cc2c[nH]c3ccccc23)C(=O)N1C [BMSpep-57] ({CH2CO}-F[NMeA]NPHLSWSW[NMeNle][NMeNle]RCG-NH2; thioether N-14)
[9]
  effect on cell viability: did not show any effect on the cell viability
[10]
  effect on cell viability: did not show any effects on the cell viability

## CCCC[C@H]1C(=O)N(C)[C@@H](CCCC)C(=O)N[C@@H](CCCNC(=N)N)C(=O)N[C@H](C(=O)NCC(N)=O)CSCC(=O)N[C@@H](Cc2ccccc2)C(=O)N(C)[C@@H](C)C(=O)N[C@@H](CC(N)=O)C(=O)N2CCC[C@H]2C(=O)N[C@@H](Cc2c[nH]cn2)C(=O)N[C@@H](CC(C)C)C(=O)N[C@@H](CO)C(=O)N[C@@H](Cc2c[nH]c3ccccc23)C(=O)N[C@@H](CO)C(=O)N[C@@H](Cc2c[nH]c3ccccc23)C(=O)N1C [BMSpep-57] ({CH2CO}-F[NMeA]NPHLSWSW[NMeNle][NMeNle]RCG-NH2; thioether N-14; N-terminus and C-terminus assumed)
[12]; at 300 nM
  inhibition at 0.3 µM: 98.1%

## Cc1ccc2ccccc2c1CN1CCN(c2c([N+](=O)[O-])c(=O)n(C)c3ccccc23)CC1 [Compound A]
[10]
  concentration without significant effect on cell viability: ≤ 90 µM
[17]
  fold IFN-γ production vs untreated cells: approximately 1.2 fold
[18]
  binding to the PD-1/PD-L1 interface: did not bind to the PD-1/PD-L1 interface
